The IC50 is the point on the concentration scale where inhibition reaches its midpoint. Read a low IC50 as inhibition by little substance.

Chain of human NaV1.8 (Q9Y5Y9 whole entry): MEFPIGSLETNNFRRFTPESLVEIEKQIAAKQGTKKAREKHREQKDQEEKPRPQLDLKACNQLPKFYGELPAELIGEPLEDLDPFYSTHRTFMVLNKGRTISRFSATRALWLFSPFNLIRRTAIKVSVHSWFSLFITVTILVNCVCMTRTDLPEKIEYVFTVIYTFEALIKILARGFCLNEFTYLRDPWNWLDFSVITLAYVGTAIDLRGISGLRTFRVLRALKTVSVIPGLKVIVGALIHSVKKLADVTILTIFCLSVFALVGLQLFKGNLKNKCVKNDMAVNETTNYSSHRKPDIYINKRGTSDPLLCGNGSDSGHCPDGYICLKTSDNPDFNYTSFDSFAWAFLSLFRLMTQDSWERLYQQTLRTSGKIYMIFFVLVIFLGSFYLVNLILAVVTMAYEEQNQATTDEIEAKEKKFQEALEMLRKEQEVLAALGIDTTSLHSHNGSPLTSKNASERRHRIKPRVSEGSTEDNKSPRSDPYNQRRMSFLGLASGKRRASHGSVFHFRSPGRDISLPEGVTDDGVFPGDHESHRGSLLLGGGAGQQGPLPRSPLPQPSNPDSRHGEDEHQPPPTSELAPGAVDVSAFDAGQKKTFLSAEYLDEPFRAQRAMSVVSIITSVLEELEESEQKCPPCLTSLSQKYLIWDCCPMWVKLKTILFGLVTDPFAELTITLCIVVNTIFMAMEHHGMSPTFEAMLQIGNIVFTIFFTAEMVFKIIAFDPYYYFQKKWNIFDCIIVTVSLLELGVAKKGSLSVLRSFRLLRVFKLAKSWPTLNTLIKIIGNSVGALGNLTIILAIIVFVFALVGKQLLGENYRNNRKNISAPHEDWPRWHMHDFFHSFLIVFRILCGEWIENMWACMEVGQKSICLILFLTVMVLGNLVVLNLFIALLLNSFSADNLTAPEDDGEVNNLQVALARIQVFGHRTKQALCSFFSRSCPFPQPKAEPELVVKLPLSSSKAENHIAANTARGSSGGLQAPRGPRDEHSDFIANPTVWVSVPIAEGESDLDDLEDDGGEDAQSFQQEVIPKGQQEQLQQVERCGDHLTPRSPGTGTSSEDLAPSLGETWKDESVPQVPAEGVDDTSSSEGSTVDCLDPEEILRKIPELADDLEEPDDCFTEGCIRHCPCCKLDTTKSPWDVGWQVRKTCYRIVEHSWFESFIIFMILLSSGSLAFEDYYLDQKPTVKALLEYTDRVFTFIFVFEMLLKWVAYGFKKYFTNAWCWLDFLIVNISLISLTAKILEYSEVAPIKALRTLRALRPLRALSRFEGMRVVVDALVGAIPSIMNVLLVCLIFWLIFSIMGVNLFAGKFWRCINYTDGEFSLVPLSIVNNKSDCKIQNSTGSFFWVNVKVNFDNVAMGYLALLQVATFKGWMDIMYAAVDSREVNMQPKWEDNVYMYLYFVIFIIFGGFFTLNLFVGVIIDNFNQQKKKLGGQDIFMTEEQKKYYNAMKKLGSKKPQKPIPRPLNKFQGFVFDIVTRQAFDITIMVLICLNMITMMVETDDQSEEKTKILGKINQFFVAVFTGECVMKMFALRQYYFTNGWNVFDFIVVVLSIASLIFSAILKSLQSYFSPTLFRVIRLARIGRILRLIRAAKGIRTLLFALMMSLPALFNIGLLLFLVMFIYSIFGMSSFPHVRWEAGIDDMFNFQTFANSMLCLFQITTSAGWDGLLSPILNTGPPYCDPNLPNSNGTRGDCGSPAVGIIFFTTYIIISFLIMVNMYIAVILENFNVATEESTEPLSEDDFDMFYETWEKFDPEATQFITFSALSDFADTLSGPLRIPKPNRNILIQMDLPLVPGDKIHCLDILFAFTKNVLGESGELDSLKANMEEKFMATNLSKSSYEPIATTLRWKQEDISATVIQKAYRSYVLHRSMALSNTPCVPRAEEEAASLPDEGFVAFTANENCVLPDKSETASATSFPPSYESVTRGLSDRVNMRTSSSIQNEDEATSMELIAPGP

The assay has as its target human NaV1.8 (Homo sapiens (Human), UniProt Q9Y5Y9). Kind of assay: Nav1.8 Qube automated patch-clamp assay. Type of assay: cell-based. Conditions: human NaV1.8 stably expressed in HEK 293 cells; automated 384-well patch-clamp; resting or inactivated state not specified. Put shortly: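 Human NaV1.8 in HEK293 cells, automated whole-cell patch clamp at room temperature: 1 Hz train of ten 20 ms pulses to 10 mV from −90 mV, repolarization to −67 mV. First- and tenth-pulse peak currents gave resting and inactivated-state IC50 values via Hill fits.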
A general note: The patch-clamp technique gives a direct electrical read-out from membranes.
The compound `O=C1NC[C@@H](C(=O)NC(c2ccc(F)c(Cl)c2)[C@@H]2CC[C@H]2C(F)(F)F)N1` (single isomer, unassigned) [Example 67A, (S)-N-((R or S)-(3-chloro-4-fluoro-phenyl)(trans-2-(trifluoromethyl)cyclobutyl)methyl)-2-oxoimidazolidine-4-carboxamide] had an IC50 of 182 nM. In the case of `O=C1NC[C@@H](C(=O)NC(c2ccc(F)c(Cl)c2)c2cc3cc(Cl)ccc3o2)N1` (single isomer, unassigned) [Example 73B, (S)-N-((R or S)-(3-chloro-4-fluorophenyl)(5-chlorobenzofuran-2-yl)methyl)-2-oxoimidazolidine-4-carboxamide], the IC50 came out at 0.2 nM. The compound `O=C1NC[C@@H](C(=O)NC(c2cnc(C(F)(F)F)c(Cl)c2)c2ccc(F)c(C(F)(F)F)n2)N1` (single isomer, unassigned) [Example 14A, (4S)-N-{[(R or S)-5-chloro-6-(trifluoro-methyl)pyridin-3-yl][5-fluoro-6-(trifluoro-methyl)pyridin-2-yl]methyl}-2-oxoimidazolidine-4-carboxamide] registered an IC50 of 2.4 nM.

The compound `O=C1NC[C@@H](C(=O)NC(c2ccc(OC(F)(F)F)c(Cl)c2)c2ccnc(C(F)(F)F)n2)N1` (single isomer, unassigned) [Example 49A, (S)-N-((R or S)-3-chloro-4-(trifluoro-methoxy)phenyl)(2-(trifluoromethyl)pyrimidin-4-yl)methyl)-2-oxoimidazolidine-4-carboxamide] returned an IC50 of 7.6 nM.

`O=C1NC[C@@H](C(=O)NC(c2ccc(F)c(Cl)c2)C2C3CN(CC(F)(F)F)CC32)N1` (single isomer, unassigned) [Example 77B, (4S)-N-((1(R or S))-(3-chloro-4-fluorophenyl)(3-(2,2,2-trifluoroethyl)-3-azabicyclo[3.1.0]hexan-6-yl)methyl)-2-oxoimidazolidine-4-carboxamide] registered an IC50 of 267 nM. `O=C1NC[C@@H](C(=O)NC(c2ccc(Cl)cc2)c2ccn3nccc3c2)N1` (single isomer, unassigned) [Example 80A, (S)—N—((R or S)-(4-chlorophenyl)(pyrazolo[1,5-a]pyridin-5-yl)methyl)-2-oxoimidazolidine-4-carboxamide]: the IC50 amounted to 100 nM. `CC1(C)CC(C(NC(=O)[C@@H]2CNC(=O)N2)c2ccc(F)c(Cl)c2F)C1` (single isomer, unassigned) [Example 30B, (4S)-N-[(R or S)-(3-chloro-2,4-di-fluorophenyl)(3,3-dimethylcyclobutyl)meth-yl]-2-oxoimidazolidine-4-carboxamide] had a concentration for half-maximal inhibition (IC50) of 458 nM.

Compound `O=C1NC[C@@H](C(=O)NC(CC2CCCCC2)c2ccc(F)c(Cl)c2F)N1` (single isomer, unassigned) [Example 54B, (S)-N-((R or S)-1-(3-chloro-2,4-difluorophenyl)-2-cyclohexylethyl)-2-oxoimidazolidine-4-carboxamide] yielded an IC50 of 50 nM.

The compound `CN1CCC(C(NC(=O)[C@@H]2CNC(=O)N2)c2ccc(F)c(Cl)c2F)CC1C(F)(F)F` (single isomer, unassigned) [Example 78E, (S)-N-((R or S)-(3-chloro-2,4-difluoro-phenyl)((cis or trans)-1-methyl-2-(trifluoro-methyl)piperidin-4-yl)methyl)-2-oxoimidazolidine-4-carboxamide] had an IC50 of 24 nM.

The compound `O=C1NC[C@@H](C(=O)NC(c2ccc(F)c(Cl)c2)C2C3CN(CC(F)(F)F)CC32)N1` (single isomer, unassigned) [Example 77A, (4S)-N-((1(R or S))-(3-chloro-4-fluorophenyl)(3-(2,2,2-trifluoroethyl)-3-azabicyclo[3.1.0]hexan-6-yl)methyl)-2-oxoimidazolidine-4-carboxamide] had an IC50 of 26 nM.

Compound `O=C1NC[C@@H](C(=O)NC(c2ccc(F)c(Cl)c2)C2Cc3ccc(Cl)cc32)N1` (stereo partly drawn) [Example 71, (4S)-N-((3-chloro-4-fluorophenyl)(4-chlorobicyclo[4.2.0]-octa-1(6),2,4-trien-7-yl)methyl)-2-oxoimidazolidine-4-carboxamide] displayed a half-maximal inhibitory concentration (IC50) of 44 nM. With `N#Cc1cccc(C(NC(=O)[C@@H]2CNC(=O)N2)c2ccc(F)c(Cl)c2)n1` (single isomer, unassigned) [Example 12A, (4S)-N-[((R or S)-3-chloro-4-fluorophenyl)(6-cyanopyridin-2-yl)methyl]-2-oxoimidazolidine-4-carboxamide] the figure was 81 nM. As to `O=C1NC[C@@H](C(=O)NC(c2ccc(F)c(C(F)F)n2)c2ccc(F)c(Cl)c2F)N1` (single isomer, unassigned) [Example 63A, (S)-N-((R or S)-(3-chloro-2,4-difluorophenyl)(6-(difluoromethyl)-5-fluoropyridin-2-yl)methyl)-2-oxoimidazolidine-4-carboxamide], the midpoint of inhibition, the IC50, lay at 4.2 nM. In turn, `O=C1NC[C@@H](C(=O)NC(c2ccc(F)c(Cl)c2F)C2CCN(C3(C(F)(F)F)CC3)CC2)N1` (single isomer, unassigned) [Example 5B, (S)—N—((R or S)-(3-chloro-2,4-difluorophenyl)(1-(1-(trifluoromethyl)-cyclopropyl)piperidin-4-yl)methyl)-2-oxoimidazolidine-4-carboxamide] registered an IC50 of 74 nM. `O=C1NC[C@@H](C(=O)NC(c2ccc(Cl)cc2)c2cc(C(F)(F)F)c(F)cn2)N1` (single isomer, unassigned) [Example 59A, (S)-N-((R or S)-(4-chlorophenyl)(5-fluoro-4-(trifluoromethyl)pyridin-2-yl)methyl)-2-oxoimidazolidine-4-carboxamide] registered an IC50 of 44 nM. Regarding `CC1(C(=O)NC(c2ccc(Cl)cc2)c2ccc(Cl)cc2)NC(=O)NC1=O` (single isomer, unassigned) [Example 20B, (R or S)—N-(bis(4-chlorophenyl)methyl)-4-methyl-2,5-dioxoimidazolidine-4-carboxamide], the midpoint of inhibition, the IC50, lay at 9480 nM. With `O=C1NC[C@@H](C(=O)NC(c2ccc(OC(F)(F)F)cc2)c2cccc(Cl)c2)N1` (single isomer, unassigned) [Example 9A, (4S)—N—((R or S)-(3-chlorophenyl)(4-(trifluoromethoxy)phenyl)methyl)-2-oxoimidazolidine-4-carboxamide], the IC50 was determined as 2 nM.

Turning to `C[C@@H]1C[C@H](C(NC(=O)[C@@H]2CNC(=O)N2)c2ccc(F)c(Cl)c2)C[C@H](C)N1CC(F)(F)F` (single isomer, unassigned) [Example 15B, (S)-N-((R or S)-(3-chloro-4-fluoro-phenyl)(cis-2,6-dimethyl-1-(2,2,2-trifluoroethyl)piperidin-4-yl)methyl)-2-oxoimidazolidine-4-carboxamide], the IC50 was determined as 965 nM. Compound `O=C1NC[C@@H](C(=O)NC(c2ccc(F)c(Cl)c2)c2ccn(CC(F)(F)F)n2)N1` (single isomer, unassigned) [Example 28B, (4S)-N-{(R or S)-(3-chloro-4-fluorophenyl)[1-(2,2,2-trifluoroethyl)-1H-pyrazol-3-yl]methyl}-2-oxoimidazolidine-4-carboxamide] showed an IC50 of 436 nM. Turning to `O=C1NC[C@@H](C(=O)NC(CC2CCCOC2)c2ccc(F)c(Cl)c2F)N1` (single isomer, unassigned) [Example 26A, (S)-N-((R or S)-1-(3-chloro-2,4-difluorophenyl)-2-((R or S)-tetrahydro-2H-pyran-3-yl)ethyl)-2-oxoimidazolidine-4-carboxamide], it took 413 nM to reach half-maximal inhibition (IC50). In turn, `O=C1NC[C@@H](C(=O)NC(c2ccc(F)c(Cl)c2F)C23CC(C(F)(F)F)(C2)C3)N1` (single isomer, unassigned) [Example 27A, (4S)—N—((R or S)-(3-chloro-2,4-difluorophenyl)(3-(trifluoromethyl)bicyclo[1.1.1]pentan-1-yl)methyl)-2-oxoimidazolidine-4-carboxamide] gave an IC50 of 5.8 nM. In turn, `O=C1NC[C@@H](C(=O)NC(c2ccc(C(F)(F)F)nc2)c2csc(C(F)(F)F)n2)N1` (mixture of isomers) [Example 19, (S)-2-oxo-N—((R and S)-(6-(trifluoromethyl)pyridin-3-yl)(2-(trifluoromethyl)thiazol-4-yl)methyl)imidazolidine-4-carboxamide] yielded an IC50 of 116 nM. Turning to `N#Cc1cccc(C(NC(=O)[C@@H]2CNC(=O)N2)c2ccc(F)c(Cl)c2)n1` (single isomer, unassigned) [Example 12B, (4S)-N-[((R or S)-3-chloro-4-fluorophenyl)(6-cyanopyridin-2-yl)methyl]-2-oxoimidazolidine-4-carboxamide], the half-inhibitory concentration (IC50) was determined as 1420 nM.

In the case of `O=C1NC[C@@H](C(=O)NC(c2ccc(F)c(Cl)c2F)[C@H]2C[C@H](C(F)(F)F)C2)N1` (single isomer, unassigned) [Example 34B, (S)—N—((R or S)-(3-chloro-2,4-difluorophenyl)(trans-3-(trifluoromethyl)cyclobutyl)methyl)-2-oxoimidazolidine-4-carboxamide], 76 nM corresponded to half-maximal inhibition (IC50).

Compound `CC(N1CC(C)(C(NC(=O)[C@@H]2CNC(=O)N2)c2ccc(F)c(Cl)c2F)C1)C(F)(F)F` (single isomer, unassigned) [Example 65D, (S)—N—((R or S)-(3-chloro-2,4-difluorophenyl)(3-methyl-1-((R or S)-1,1,1-trifluoropropan-2-yl)azetidin-3-yl)methyl)-2-oxoimidazolidine-4-carboxamide] displayed an IC50 of 7760 nM. `O=C1NC[C@@H](C(=O)NC(c2ccc(F)c(Cl)c2F)C2COC(C(F)(F)F)C2)N1` (single isomer, unassigned) [Example 79D, (S)-N-((R or S)-(3-chloro-2,4-difluoro-phenyl)((cis or trans)-5-(trifluoromethyl)tetrahydrofuran-3-yl)methyl)-2-oxoimidazolidine-4-carboxamide]: half-maximal inhibition (IC50) was put at 3680 nM.

The values above are taken from US20230312528A1, “2-OXO-IMIDAZOLIDINE-4-CARBOXAMIDES AS NAV1.8 INHIBITORS” (Merck Sharp & Dohme LLC, priority 2020, published 2023).
